Like-named read-outs stand apart in the source and are kept apart here.
Tests used:
rat osteoclasts [1] = assay: bone resorption assay (disaggregated rat osteoclasts on human cortical bone slices); conditions: osteoclasts counted on hormone-treated versus control bone slices
Procedure: Following incubation (37° C.; 15 minutes), the bone slices were removed, washed gently in Minimal Essential Medium with FCS (10%, v/v) (MEM/FCS) and placed in separate wells (each well contained 5-6 slices and 900 μl MEM/FCS). Either one or two homogeneous suspensions of osteoclasts were used for each experiment. When two suspensions were used, the experiment was divided into two blocks, each of which included all treatments and one suspension. After further incubation (37° C., 10% humidified CO2, 10 minutes), 100 μl of MEM/FCS containing the test substance was added. Finally, bone slices were incubated overnight (37° C., 10% humidified CO2, 18 hours) and quantified in terms of cell numbers and bone resorption. After fixation in glutaraldehyde, cells were stained with toluidine blue and examined by transmitted light microscopy. In order to rule out toxic effects, osteoclasts were counted on three slices for every variable and their numbers were then compared on hormone-treated and control bone slices. […] Osteoclastic excavations, each defined by a continuous border within an area of unresorbed bone were counted. The area of bone surface resorbed was calculated by tracing the outline of the concavities into an image processor (Sight Systems, Newbury, Berks).

rat osteoclasts [2] = conditions: Zaidi et al. 1988; cited from earlier work
chick = conditions: higher doses; cited from earlier work
rabbit = conditions: cited from earlier work
isolated osteoclasts = assay: functional responses of isolated osteoclasts (motility, cytosolic calcium, retraction); type: cell-based
From the text: Thus, it appears that osteoclast activity may be restrained via two receptor types; calcitonin acts at both while amylin acts mainly via only one, reducing motility, reducing resorption and probably acting via the second messenger cAMP (Zaidi et. al. 1990, J. Endocrinol 126, 473-481.

## CC[C@H](C)[C@H](NC(=O)[C@H](C)NC(=O)CNC(=O)[C@H](Cc1ccccc1)NC(=O)[C@H](CC(N)=O)NC(=O)[C@H](CC(N)=O)NC(=O)[C@H](CO)NC(=O)[C@H](CO)NC(=O)[C@H](Cc1c[nH]cn1)NC(=O)[C@@H](NC(=O)[C@H](CC(C)C)NC(=O)[C@H](Cc1ccccc1)NC(=O)[C@H](CC(N)=O)NC(=O)[C@H](C)NC(=O)[C@H](CC(C)C)NC(=O)[C@H](CCCNC(=N)N)NC(=O)[C@H](CCC(N)=O)NC(=O)[C@@H](NC(=O)[C@H](C)NC(=O)[C@@H]1CSSC[C@H](NC(=O)[C@@H](N)CCCCN)C(=O)N[C@@H](CC(N)=O)C(=O)N[C@@H]([C@@H](C)O)C(=O)N[C@@H](C)C(=O)N[C@@H]([C@@H](C)O)C(=O)N1)[C@@H](C)O)C(C)C)C(=O)N[C@@H](CC(C)C)C(=O)N[C@@H](CO)C(=O)N[C@@H](CO)C(=O)N[C@H](C(=O)N[C@@H](CC(N)=O)C(=O)N[C@H](C(=O)NCC(=O)N[C@@H](CO)C(=O)N[C@@H](CC(N)=O)C(=O)N[C@H](C(=O)N[C@@H](Cc1ccc(O)cc1)C(N)=O)[C@@H](C)O)C(C)C)[C@@H](C)O [amylin]
Rat osteoclasts [1]
  osteoclast cell number or viability: without affecting cell number of viability

## CGRP
Rat osteoclasts [2]
  osteoclastic bone resorption: inhibits osteoclastic bone resorption
chick
  effect on plasma calcium: parathyroid hormone-like hypercalcemic effect
rabbit; rabbit, higher doses
  effect on plasma calcium: parathyroid hormone-like hypercalcemic effect
rabbit; rabbits, lower doses
  effect on plasma calcium: hypocalcaemic

## calcitonin
Isolated osteoclasts
  cell retraction: caused cell retraction
  cytosolic calcium: elevated cytosolic calcium
  osteoclast motility: inhibited osteoclast motility

Source: patent US5405831A, “Treatment of bone disorders” (Amylin Pharmaceuticals, Inc., priority 1989, dated 1995)
